Reference: PMC10068418 (Journal of Antimicrobial Chemotherapy, 2023)
“And” between values parts separate entries of the source, which are not always exact repeats. Identical values can stand only once. Like-named read-outs stand apart in the source and are kept apart here.

What was measured:
[1] = tested on: SARS-CoV-2 Delta strain (hCoV-19/Japan/TY11-927/2021); assay type: cell-based; conditions: read-out: Viral titre EC90
[2] = tested on: SARS-CoV-2 Omicron BA.1 strain (hCoV-19/Japan/TY38-873/2021); assay type: cell-based; conditions: read-out: Viral titre EC90
[3] = tested on: SARS-CoV-2 hCoV-19/Japan/TY/WK-521 strain; assay: microbe, parasite or virus in culture; assay type: cell-based; conditions: read-out: CPE EC50
[4] = Protein binding of nirmatrelvir in hamster serum by equilibrium dialysis; assay type: in vitro ADME, Syrian hamsters; conditions: male, Syrian, pH 7.4
[5] = Protein binding of nirmatrelvir in mouse serum by equilibrium dialysis; assay type: in vitro ADME, BALB/cAJcl mice; conditions: female, BALB/cAJcl, pH 7.4
[6] = BALB/cAJcl, mouse, in vivo
[7] = tested on: SARS-CoV-2; conditions: Phase 2a and Phase 2b studies; cited from earlier work
[8] = in vitro; conditions: male, Syrian, hamster, serum
[9] = tested on: SARS-CoV-2 Omicron BA.2; set-up: species or system Syrian hamsters; conditions: hamster, in vivo
[10] = in vitro; conditions: female, BALB/cAJcl, mouse, serum
[11] = Severe acute respiratory syndrome coronavirus 2, HEK-293T, 72 h

Structure (SMILES): O=c1nc(NO)ccn1[C@@H]1O[C@H](CO)[C@@H](O)[C@H]1O [NHC, β-D-N^4-hydroxycytidine]
- EC90 [1]: 3.83 µM and 6.72 µM
- EC90 [2]: 2.35 µM and 3.66 µM
- EC50 [3]: 4 ± 3.5 µM

Structure (SMILES): CCC(CC)COC(=O)[C@H](C)N[P@](=O)(OC[C@H]1O[C@@](C#N)(c2ccc3c(N)ncnn23)[C@H](O)[C@@H]1O)Oc1ccccc1 [Remdesivir, remdesivir]
- EC50 [3, 11]: 0.012 ± 0.002 µM

Structure (SMILES): CC(C)(C)[C@H](NC(=O)C(F)(F)F)C(=O)N1C[C@H]2[C@@H]([C@H]1C(=O)N[C@H](C#N)C[C@@H]1CCNC1=O)C2(C)C [Nirmatrelvir, nirmatrelvir]
- fraction unbound at 24 h, 4 µM [4]: 0.596
- fraction unbound at 24 h, 4 µM [5]: 0.669
- EC50 [3, 11]: 0.041 ± 0.013 µM
- f-C24h unbound drug plasma concentration [6]: 676 ± 609 ng/mL
- f-C72h unbound drug plasma concentration [6]: 1490 ± 430 ng/mL
- t-C24h total plasma concentration [6]: 1010 ± 910 ng/mL
- t-C48h total plasma concentration [6]: 2050 ± 610 ng/mL
- t-C72h total plasma concentration [6]: 2230 ± 650 ng/mL

Structure (SMILES): Cn1cnc(Cn2c(=O)[nH]/c(=N\c3cc4cn(C)nc4cc3Cl)n(Cc3cc(F)c(F)cc3F)c2=O)n1 [Ensitrelvir, ensitrelvir fumaric acid]
- Viral titres in nasal lavage fluid [7]: significantly reduced viral titres
- fraction unbound [8]: 0.017
- Antiviral activity in the lungs (viral titres) [9]: failed to show antiviral activity
- Antiviral activity in the nasal turbinates compared with that of nirmatrelvir [9]: greater antiviral activity
- Lowering of lung viral titres compared with 750/250 mg/kg nirmatrelvir [9]: less effective
- EC50 [3, 11]: 0.027 ± 0.002 µM
- fraction unbound [10]: 0.024
